Laboratory results from patent US20130150376A1, “Novel Sultam Compounds” (PFIZER INC., priority 2010, published 2013).
Counter-ions that a name gives are not always drawn. Like-named read-outs stand apart in the source and are kept apart here.

Target: T1, BACE1 enzyme (soluble, truncated BACE enzyme, BACE1deltaTM96His) (Homo sapiens, UniProt P56817)
T1 construct: soluble, truncated BACE enzyme (BACE1deltaTM96His); His; made in house
Test: BACE1 Fluorescent Polarization (FP) Assay
Format: biochemical
Conditions: geometric mean of 2-4 IC50 determinations unless footnoted (^2: 5-6 determinations; ^4: single determination)
Excerpt: BACE1 Fluorescent Polarization (FP) Assay
The fluorescently tagged synthetic substrate, Biotin-GLTNIKTEEISEISŶEVEFR-C[oregon green]KK-OH can be efficiently cleaved by the beta-secretase enzyme and is therefore useful to assay beta-secretase activity in the presence or absence of inhibitory compounds. The his tagged BACE1 enzyme was affinity purified material from conditioned media of CHO-K1 cells that had been transfected to express soluble, truncated BACE enzyme (BACE1deltaTM96His). Compounds were incubated in a ½ log dose response (from a top concentration of 100 μM) with BACE1 enzyme (0.1 nM final) and the biotinylated fluorescent peptide substrate (150 nM final) in assay buffer containing 100 mM sodium acetate, pH 4.5 (brought to pH with acetic acid), and 0.001% Tween-20. Total reaction volumes of 30 μL were carried out in 384-well black plates (Thermo Scientific 4318). Plates were covered and incubated for 3 hours at 37° C. The reactions were then stopped by addition of 30 μL of 1.5 μM Streptavidin (Pierce, 21125). After a 10 minute incubation at room temperature, plates were read on a PerkinElmer Envision for fluorescence polarization (Ex485 nm/Em530 nm). The activity of the beta-secretase enzyme is detected by changes in the fluorescence polarization (Δ mP) that occur when the substrate is cleaved by the enzyme.

[1] = 8-point curve, read-out: BACE activity, 8-point curve, IC50
[2] = 11-point curve, read-out: BACE activity, 11-point curve, IC50

T1 sequence (P56817 46-457): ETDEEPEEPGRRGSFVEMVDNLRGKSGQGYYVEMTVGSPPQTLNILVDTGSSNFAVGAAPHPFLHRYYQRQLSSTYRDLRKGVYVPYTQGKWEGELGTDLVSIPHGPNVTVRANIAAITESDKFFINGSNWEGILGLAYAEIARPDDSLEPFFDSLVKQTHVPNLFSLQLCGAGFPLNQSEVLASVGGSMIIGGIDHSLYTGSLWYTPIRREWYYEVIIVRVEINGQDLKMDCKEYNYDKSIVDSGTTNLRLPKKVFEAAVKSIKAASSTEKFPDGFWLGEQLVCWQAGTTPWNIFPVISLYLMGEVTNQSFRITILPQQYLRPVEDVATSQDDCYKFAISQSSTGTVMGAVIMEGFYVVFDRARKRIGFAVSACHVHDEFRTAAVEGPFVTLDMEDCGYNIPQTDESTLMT

Row | Compound | IC50 [1] | IC50 [2]
1 | C[C@H]1C[C@@]2(C=CS(=O)(=O)N2c2cccc(F)c2)CCN1Cc1scnc1CC1CC1 [Example 24, (5R,7S)-8-{[4-(cyclopropylmethyl)-1,3-thiazol-5-yl]methyl}-1-(3-fluorophenyl)-7-methyl-2-thia-1,8-diazaspiro[4.5]dec-3-ene 2,2-dioxide, hydrochloride salt] | 0.0519 µM | 0.353 µM
2 | CCOc1cc(CN2CC[C@]3(C=CS(=O)(=O)N3c3cccc(F)c3)C[C@@H]2C)ccc1O [Example 27, 2-ethoxy-4-{[(5R,7S)-1-(3-fluorophenyl)-7-methyl-2,2-dioxido-2-thia-1,8-diazaspiro[4.5]dec-3-en-8-yl]methyl}phenol] | 0.116 µM | 0.269 µM
3 | C[C@H]1C[C@]2(CCN1Cc1ccc(O)c(Cl)c1)CCS(=O)(=O)N2c1cccc(F)c1 [Example 29, 2-chloro-4-{[(5R7S)-1-(3-fluorophenyl)-7-methyl-2,2-dioxido-2-thia-1,8-diazaspiro[4.5]dec-8-yl]methyl}phenol, hydrochloride salt] | 0.332 µM | 1.53 µM
4 | C[C@H]1C[C@]2(CCN1Cc1ncoc1-c1cccnc1)CCS(=O)(=O)N2c1cccc(F)c1 [Example 32, (5R,7S)-1-(3-fluorophenyl)-7-methyl-8-[(5-pyridin-3-yl-1,3-oxazol-4-yl)methyl]-2-thia-1,8-diazaspiro[4.5]decane 2,2-dioxide, hydrochloride salt] |  | 4.29 µM
5 | C[C@H]1C[C@]2(CCN1Cc1ncoc1-c1cncnc1)CCS(=O)(=O)N2c1cccc(F)c1 [Example 33, (5R,7S)-1-(3-fluorophenyl)-7-methyl-8-[(5-pyrimidin-5-yl-1,3-oxazol-4-yl)methyl]-2-thia-1,8-diazaspiro[4.5]decane 2,2-dioxide, hydrochloride salt] |  | 3.03 µM
6 | C[C@H]1C[C@@]2(C=CS(=O)(=O)N2c2cccc(F)c2)CCN1Cc1ncoc1-c1cccs1 [Example 34, (5R,7S)-1-(3-fluorophenyl)-7-methyl-8-{[5-(2-thienyl)-1,3-oxazol-4-yl]methyl}-2-thia-1,8-diazaspiro[4.5]dec-3-ene 2,2-dioxide, hydrochloride salt] |  | 5.89 µM
7 | Cc1ncsc1-c1ocnc1CN1CC[C@]2(C=CS(=O)(=O)N2c2cccc(F)c2)C[C@@H]1C [Example 36, (5R,7S)-1-(3-fluorophenyl)-7-methyl-8-{[5-(4-methyl-1,3-thiazol-5-yl)-1,3-oxazol-4-yl]methyl}-2-thia-1,8-diazaspiro[4.5]dec-3-ene 2,2-dioxide] | 2.51 µM | 6.29 µM
8 | Cc1ccsc1-c1ocnc1CN1CC[C@]2(C=CS(=O)(=O)N2c2cccc(F)c2)C[C@@H]1C [Example 37, (5R,7S)-1-(3-fluorophenyl)-7-methyl-8-{[5-(3-methyl-2-thienyl)-1,3-oxazol-4-yl]methyl}-2-thia-1,8-diazaspiro[4.5]dec-3-ene 2,2-dioxide] | 1.82 µM | 2.84 µM
9 | Cc1ccncc1-c1cccc(CN2CC[C@]3(C=CS(=O)(=O)N3c3cccc(F)c3)C[C@@H]2C)c1 [Example 39, (5R,7S)-1-(3-fluorophenyl)-7-methyl-8-[3-(4-methylpyridin-3-yl)benzyl]-2-thia-1,8-diazaspiro[4.5]dec-3-ene 2,2-dioxide, hydrochloride salt] | 0.0795 µM | 0.414 µM
10 | C[C@H]1C[C@@]2(C=CS(=O)(=O)N2c2cccc(F)c2)CCN1Cc1ccc2[nH]ccc2c1 [Example 41, (5R,7S)-1-(3-fluorophenyl)-8-(1H-indol-5-ylmethyl)-7-methyl-2-thia-1,8-diazaspiro[4.5]dec-3-ene 2,2-dioxide] | 0.703 µM | 2.38 µM
11 | COc1ccc2[nH]c(CN3CC[C@]4(C=CS(=O)(=O)N4c4cccc(F)c4)C[C@@H]3C)cc2c1 [Example 42, (5R,7S)-1-(3-fluorophenyl)-8-[(5-methoxy-1H-indol-2-yl)methyl]-7-methy1-2-thia-1,8-diazaspiro[4.5]dec-3-ene 2,2-dioxide] | 0.117 µM | 2.22 µM
12 | Cc1ccsc1-c1ncsc1CN1CC[C@]2(C=CS(=O)(=O)N2c2cccc(F)c2)C[C@@H]1C [Example 45, (5R,7S)-1-(3-fluorophenyl)-7-methyl-8-{[4-(3-methyl-2-thienyl)-1,3-thiazol-5-yl]methyl}-2-thia-1,8-diazaspiro[4.5]dec-3-ene 2,2-dioxide] | 5.6 µM | 15.3 µM
13 | Cc1cncc(-c2ncsc2CN2CC[C@]3(C=CS(=O)(=O)N3c3cccc(F)c3)C[C@@H]2C)c1 [Example 49, (5R,7S)-1-(3-fluorophenyl)-7-methyl-8-{[4-(5-methylpyridin-3-yl)-1,3-thiazol-5-yl]methyl}-2-thia-1,8-diazaspiro[4.5]dec-3-ene 2,2-dioxide, hydrochloride salt] | 6.72 µM | 15.2 µM
14 | Cc1ccncc1-c1ncsc1CN1CC[C@]2(C=CS(=O)(=O)N2c2cccc(F)c2)C[C@@H]1C [Example 50, (5R,7S)-1-(3-fluorophenyl)-7-methyl-8-{[4-(4-methylpyridin-3-yl)-1,3-thiazol-5-yl]methyl}-2-thia-1,8-diazaspiro[4.5]dec-3-ene 2,2-dioxide, hydrochloride salt] | 7.18 µM | 25.6 µM

Second part, the compound after the results:

Row | IC50 [1] | IC50 [2] | Compound
15 | 0.0143 µM | 0.0284 µM | Cc1ccccc1-c1cc(CN2CC[C@]3(C=CS(=O)(=O)N3c3cccc(F)c3)C[C@@H]2C)ccc1O [Example 25, 5-{[(5R,7S)-1-(3-fluorophenyl)-7-methyl-2,2-dioxido-2-thia-1,8-diazaspiro[4.5]dec-3-en-8-yl]methyl}-2′-methylbiphenyl-2-ol, hydrochloride salt]
16 | 0.521 µM | 2.16 µM | CC(C)Oc1cccc(CN2CC[C@]3(CCS(=O)(=O)N3c3cccc(F)c3)C[C@@H]2C)c1 [Example 28, (5R,7S)-1-(3-fluorophenyl)-8-(3-isopropoxybenzyl)-7-methyl-2-thia-1,8-diazaspiro[4.5]decane 2,2-dioxide]
17 | 2.18 µM | 3 µM | C[C@H]1C[C@@]2(C=CS(=O)(=O)N2c2cccc(F)c2)CCN1Cc1ncoc1-c1cncs1 [Example 35, (5R,7S)-1-(3-fluorophenyl)-7-methyl-8-{[5-(1,3-thiazol-5-yl}-1,3-oxazol-4-yl]methyl}-2-thia-1,8-diazaspiro[4.5]dec-3-ene 2,2-dioxide]
18 | 0.752 µM | 2.78 µM | Cc1cncc(-c2ocnc2CN2CC[C@]3(C=CS(=O)(=O)N3c3cccc(F)c3)C[C@@H]2C)c1 [Example 38, (5R,7S)-1-(3-fluorophenyl)-7-methyl-8-{[5-(5-methylpyridin-3-yl)-1,3-oxazol-4-yl]methyl}-2-thia-1,8-diazaspiro[4.5]dec-3-ene 2,2-dioxide]
19 | 1.38 µM | 2.38 µM | C[C@H]1C[C@@]2(C=CS(=O)(=O)N2c2cccc(F)c2)CCN1Cc1ncoc1-c1cncc(F)c1 [Example 40, (5R,7S)-1-(3-fluorophenyl)-8-{[5-(5-fluoropyridin-3-yl)-1,3-oxazol-4-yl]methyl}-7-methyl-2-thia-1,8-diazaspiro[4.5]dec-3-ene 2,2-dioxide, hydrochloride salt]
20 | 0.975 µM | 8.25 µM | C[C@H]1C[C@@]2(C=CS(=O)(=O)N2c2cccc(F)c2)CCN1Cc1scnc1-c1cncnc1 [Example 43, (5R,7S)-1-(3-fluorophenyl)-7-methyl-8-[(4-pyrimidin-5-yl-1,3-thiazol-5-yl)methyl]-2-thia-1,8-diazaspiro[4.5]dec-3-ene 2,2-dioxide]
21 | 3.07 µM | 8.46 µM | C[C@H]1C[C@@]2(C=CS(=O)(=O)N2c2cccc(F)c2)CCN1Cc1scnc1-c1cncc(F)c1 [Example 44, (5R,7S)-1-(3-fluorophenyl)-8-{[4-(5-fluoropyridin-3-yl)-1,3-thiazol-5-yl]methyl}-7-methyl-2-thia-1,8-diazaspiro[4.5]dec-3-ene 2,2-dioxide, hydrochloride salt]
22 | 5.6 µM | 9.03 µM | C[C@H]1C[C@@]2(C=CS(=O)(=O)N2c2cccc(F)c2)CCN1Cc1scnc1-c1cccnc1 [Example 48, (5R,7S)-1-(3-fluorophenyl)-7-methyl-8-[(4-pyridin-3-yl-1,3-thiazol-5-yl)methyl]-2-thia-1,8-diazaspiro[4.5]dec-3-ene 2,2-dioxide]
23 | 2.08 µM | 5.64 µM | C[C@H]1C[C@]2(CCN1Cc1ccc3[nH]ccc3c1)CCS(=O)(=O)N2c1cccc(F)c1 [Example 51, (5R,7S)-1-(3-fluorophenyl)-8-(1H-indol-5-ylmethyl)-7-methyl-2-thia-1,8-diazaspiro[4.5]decane 2,2-dioxide]
24 | 0.0405 µM |  | Cc1ccccc1-c1cccc(CN2CC[C@]3(CCS(=O)(=O)N3c3cccc(F)c3)C[C@@H]2C)c1 [Example 52, (5R,7S)-1-(3-fluorophenyl)-7-methyl-8-[(2′-methylbiphenyl-3-yl)methyl]-2-thia-1,8-diazaspiro[4.5]decane 2,2-dioxide, formate salt]
